Literature values as cited in PMC5132270 (Cancer Science, 2016).

Columns and labels:
[1] = tested on: models of crizotinib resistance; settings: preclinical studies

Compound | median PFS (ALK+ NSCLC) | antitumor effect [1]
Cc1cc(Nc2ncc(Cl)c(Nc3ccccc3S(=O)(=O)C(C)C)n2)c(OC(C)C)cc1C1CCNCC1 [ceritinib] | 7.0 months | 
CCc1cc2c(cc1N1CCC(N3CCOCC3)CC1)C(C)(C)c1[nH]c3cc(C#N)ccc3c1C2=O [alectinib] |  | tumor size reduction
